Experimental data from patent US20170173134A1 (priority 2011, published 2017).
Read-outs that look alike come from different tables or passages of the source.

Key:
[1] = tested on: MNU-induced bladder cancer; assay type: in vivo, female Fischer 344 rats
[2] = n = 10
[3] = in vivo; cited from earlier work
bladder cancer = settings: human, in vivo; cited from earlier work
[4] = tested on: MNU-induced urinary bladder carcinoma; test: Second experiment (Table 5): histological assessment, MNU-induced bladder cancer; assay type: in vivo, rats
Experimental: The therapeutic effect in urinary bladder cancer in animals was assessed by histological evaluation of the tissues. The criteria for assessing normality of the tissues examined for all the experiments using the same animal model, that is, the experiments reported in Table 4, Table 5, Table 6-A, Table 6-B, Table 6-C and Table 6-D are: normal tissue, flat hyperplasia, papillary hyperplasia.
Flat hyperplasia and papillary hyperplasia are reactive changes of an inflammatory nature, though benign, and their occurrence in the experiments for assessment of new drugs in animals affected with cancer, indicates a reversal of the cancer process to non-cancerous stages.
Metaplasia is defined as the replacement of a normal functional tissue with another tissue with different structure, with loss of function, and, thus, is considered a form of premalignant lesion.
[…] animals (n=50) were used in the experiment. The therapeutic effect was assessed through histological assessment of tissues, and the toxicological effect of the compounds, through assessment of the presence or absence of urinary bleeding also called hematuria.
All the animals in the experiment were subjected to intravesical applications of 1.5 mg/kg of n-methyl-n-nitrosourea (MNU) dissolved in 0.30 mL of sodium citrate, using a catheter, for 7 weeks. One group (control) of 10 animals was given only saline solution ([…]), also intravesically and for an equal period.
The purpose of using n-methyl-n-nitrosourea (MNU) was to experimentally induce immunosuppression and subsequently producing urinary bladder carcinoma. After treatment with MNU, the animals were divided into 05 groups of 10 animals each.
After this procedure, all the 10 animals of each group were sacrificed and their urinary bladders were removed for collection of tissue fragments, which were embedded in paraffin and prepared for histological section, by the usual techniques.
For the histological examinations, sections (2 μm) of the tissue of the urinary bladder were cut using microtome Zeiss, mounted on microscope slides, and stained with hematoxylin-eosin (HE), for subsequent pathology assessment, quantification of cellular changes and comparison between control and treatment groups.

[5] = tested on: MNU-induced cancerous lesions of the urinary bladder; assay type: in vivo, Fischer 344 rats
[6] = 10 mg/kg intravesical, 14 weeks; n = 10
[7] = tested on: bladder cancer induced by MNU; design: species or system Fischer rats; settings: rat, in vivo
[8] = rat, in vivo
[9] = tested on: MNU-induced urinary bladder carcinoma; design: species or system rats; settings: rat, in vivo
[10] = Table 5 experiment, intravesical
[11] = MNU-induced bladder cancer, 10 mg/kg intravesical (topical application), 14 weeks, n = 10

CC(=O)O[C@@]12CO[C@@H]1C[C@H](O)[C@@]1(C)C(=O)[C@H](O)C3=C(C)[C@@H](OC(=O)[C@H](O)[C@@H](NC(=O)OC(C)(C)C)c4ccccc4)C[C@@](O)([C@@H](OC(=O)c4ccccc4)[C@H]21)C3(C)C [Docetaxel]
Flat hyperplasia, number of animals ([1]; rat, in vivo): 1
High-grade intraepithelial carcinoma (carcinoma in situ-Tis), number of animals ([1]; rat, in vivo): 3
Low grade Intraepithelial neoplasia, number of animals ([1]; rat, in vivo): 2
Normal, number of animals ([1]; rat, in vivo): 1
Papillary carcinoma (Ta), number of animals ([1]; rat, in vivo): 1
Papillary hyperplasia, number of animals ([1]; rat, in vivo): 1
Squamous metaplasia, number of animals ([1]; rat, in vivo): 1
success rate / responders ([1]; rat, in vivo): 20%
Toxicology: (Hematuria), number of animals positive [2]: +10

COc1cccc2c1C(=O)c1c(O)c3c(c(O)c1C2=O)C[C@@](O)(C(=O)CO)C[C@@H]3O[C@H]1C[C@H](N)[C@H](O)[C@H](C)O1 [Doxorubicin]
Allergic reaction, (%) patients affected [3]: 1%
Chemical cystitis, (%) patients affected [3]: 25%

Nc1ccn([C@@H]2O[C@H](CO)[C@@H](O)C2(F)F)c(=O)n1 [Gemcitabine]
Flat hyperplasia, number of animals ([1]; n = 10): 2
High-grade intraepithelial carcinoma (carcinoma in situ-Tis), number of animals ([1]; n = 10): 4
Low grade Intraepithelial neoplasia, number of animals ([1]; n = 10): 2
Papillary hyperplasia, number of animals ([1]; n = 10): 2
success rate / responders ([1]; rat, in vivo): 40%
Toxicology: (Hematuria), number of animals in which absent [2]: in 06
Toxicology: (Hematuria), number of animals positive [2]: +in 04

CO[C@@]12[C@H](COC(N)=O)C3=C(C(=O)C(C)=C(N)C3=O)N1C[C@@H]1N[C@@H]12 [Mitomycin C]
patients with no recurrence of cancer during the follow-up period (bladder cancer): 19%
recurrence rate after 5 years (bladder cancer): 64%
Bladder contraction, (%) patients affected [3]: <2%
Hematuria, (%) patients affected [3]: 10%
Myelosuppression, (%) patients affected [3]: <10%
animals that had cancer after treatment [4, 10]: 50%
Flat hyperplasia, animals ([5]; n = 10): 1(10%)
High-grade intraepithelial carcinoma (carcinoma in situ-Tis), animals ([5]; n = 10): 3(30%)
Low-grade intraepithelial carcinoma, animals ([5]; n = 10): 6(60%)
Normal, animals ([5]; n = 10): 0%

S=P(N1CC1)(N1CC1)N1CC1 [Thiotepa]
Chemical cystitis, (%) patients affected [3]: 20%
Myelosuppression, (%) patients affected [3]: 10%

CCCCC(=O)OCC(=O)[C@]1(O)Cc2c(O)c3c(c(O)c2[C@@H](O[C@H]2C[C@H](NC(=O)C(F)(F)F)[C@H](O)[C@H](C)O2)C1)C(=O)c1c(OC)cccc1C3=O [Valrubicin, N-trifluoroacetyladriamycin-14-valerate]
patients treated in whom results are seen (bladder cancer): 20%
Toxicology: (Hematuria) [6]: Positive
Toxicology: (Hematuria), % of animals [6]: (100%)
Toxicology: Presence of hematuria, number of animals (Fischer 344, rat, in vivo): N = 10
Toxicology: Presence of hematuria (n = 10): Positive
Toxicology: Presence of hematuria, % of animals (n = 10): 100%
High grade intraepithelial neoplasia (carcinoma in situ-Tis), animals [4, 11]: 2 (20%) n (%)
Low grade intraepithelial neoplasia, animals [4, 11]: 5 (50%) n (%)
Normal, animals [4, 11]: 1 (10%) n (%)
Papillary carcinoma (Ta), animals [4, 11]: 1 (10%) n (%)
Squamous metaplasia, animals [4, 11]: 1 (10%) n (%)
therapeutic effectiveness / efficacy [4, 10]: 10%
Flat hyperplasia, animals ([5]; n = 10): 1(10%)
High-grade intraepithelial carcinoma (carcinoma in situ-Tis), animals ([5]; n = 10): 2(20%)
Low-grade intraepithelial carcinoma, animals ([5]; n = 10): 4(40%)
Papillary carcinoma (Ta), animals ([5]; n = 10): 1(10%)
Papillary hyperplasia, animals ([5]; n = 10): 1(10%)
Squamous metaplasia, animals ([5]; n = 10): 1(10%)

Bacillus Calmette-Guérin [BCG]
patients with no recurrence of cancer during the follow-up period (bladder cancer): 39%
rate of recurrence after 5 years (SWOG 8507) (bladder cancer): 60%
recurrence rate after 5 years (bladder cancer): 34%
relapse among patients who respond well in the early days (bladder cancer): 30%
Flat hyperplasia, number of animals [7]: 1
High-grade Intraurothelial Neoplasia - Carcinoma in situ (pTis), number of animals [7]: 1
Low-grade Intraurothelial Neoplasia, number of animals [7]: 1
Normal, number of animals [7]: 1
Papillary Carcinoma (pTa), number of animals [7]: 2
Papillary hyperplasia, number of animals [7]: 3
Urothelial carcinoma with lamina propria invasion (pT1), number of animals [7]: 2
recurrent or refractory / malignant lesions [7]: 83%
recurrent or refractory lesions [7]: 17%
responders [7]: 83%
responders (absence of malignant lesions) [7]: 17%
Flat hyperplasia, number of animals ([1]; rat, in vivo): 2
High-grade intraepithelial carcinoma (carcinoma in situ-Tis), number of animals ([1]; rat, in vivo): 3
Low grade Intraepithelial neoplasia, number of animals ([1]; rat, in vivo): 2
Normal, number of animals ([1]; rat, in vivo): 0
Papillary carcinoma (Ta), number of animals ([1]; rat, in vivo): 1
Papillary hyperplasia, number of animals ([1]; rat, in vivo): 2
animals with recurrent/refractory malignant lesions ([1]; rat, in vivo): 06
success rate / responders ([1]; rat, in vivo): 40%
patients affected by local toxicity (cystitis, macroscopic haematuria) [3]: up to 75%
patients with unwanted side effects (irritation, haematuria, dysuria) [3]: around 90%
withdrawal from treatment because of local toxicity [3]: around 15%
Toxicology: (Hematuria) [8]: Positive
Toxicology: (Hematuria), % of animals [8]: (100%)
degree of hematuria moderate, % of animals [8]: 80%
degree of hematuria severe, % of animals [8]: 20%
animals with positive result / positive outcome (histopathology) [9]: 40%
Toxicology: Presence of hematuria (rat, in vivo): Positive
Toxicology: Presence of hematuria, % of animals (rat, in vivo): (100%)
Toxicology: Presence of hematuria, number of animals (rat, in vivo): n = 10
Flat hyperplasia, animals ([5]; rat, in vivo): 2(20%)
High-grade intraepithelial carcinoma (carcinoma in situ-Tis), animals ([5]; rat, in vivo): 2(20%)
Low-grade intraepithelial carcinoma, animals ([5]; rat, in vivo): 3(30%)
Normal, animals ([5]; rat, in vivo): 0%
Papillary hyperplasia, animals ([5]; rat, in vivo): 2(20%)
Squamous metaplasia, animals ([5]; rat, in vivo): 1(10%)
